Values joined by “and” are separate entries in the source; they are usually repeats but may differ in a detail not shown here. Equal entries are not always repeated. Where two headings read alike, the source gives them in different places.
Key:
Type in all cases: in vivo
Nilaparvata lugens = assay: Insecticidal activity against Nilaparvata lugens (Potter spray tower); conditions: 24 h, read-out: Mortality rate (%) N. lugens
Chilo suppressalis = assay: Insecticidal activity against Chilo suppressalis (soaking method); conditions: 96 h, read-out: Mortality rate (%) C. suppressalis
Helicoverpa armigera = assay: Insecticidal activity against Helicoverpa armigera (soaking method); conditions: for mortality at 400 µg/mL: Helicoverpa armigera, 48 h, read-out: Mortality rate (%) H. armigera
Aphis craccivora = assay: Insecticidal activity against Aphis craccivora (Potter spray tower); conditions: read-out: Mortality rate (%) A. craccivora
[1] = tested on: honeybees (Apis mellifera); assay: Bee acute oral toxicity; conditions: for LD50 / Mortality / Toxicity level: Oral toxicity; for LD50 oral toxicity: adult bees, time not stated
Experimental: (§1) The test bees were Italian bees (Apis mellifera), and the newly born adult worker bees (<24 h) were selected for drug drip treatment. Weigh 50 mg of test substance FLP and fully dissolve it in DMSO to obtain 10 × 10^4 mg A.I./L of stock liquid medicine; dissolve B4 fully in DMSO and fix the volume to a 1-ml volumetric flask to obtain 11.6 × 10^4 mg A.I./L stock solution.
Oral toxicity. Before the formal experiment, a pre-experiment was carried out. According to the formal experimental conditions, three to four dose groups were set at large intervals to observe the death of bees between 24 and 48 h and determine the linear range of the lethal effect of drugs on bees. According to the pre-test results, determine the concentration range of the formal test and set five to seven test dose groups. Starve bees for 2 h before being infected, and then eliminate bees that are dying or have abnormal behaviors; put 200 μL of test liquid medicine in the feeding tube, and after the liquid medicine is consumed (within 6 h), take out the feeder to measure the weight of the food that has not been consumed. Then, the bees were fed with sucrose solution without test samples. Cultivate in the dark. At the same time, feeding 50% sucrose solution as a blank control, the treatment group and the control group were set up with three replicates, and 20 bees were used in each replicate. According to the results of the pre-experiment, if the toxicity of the drug to bees is low, the upper limit dose of 100 μg a.i./bee is set for the limit test of bees, that is, when the tested substance reaches 100 μg a.i./bee, no bees die, so there is no need to continue the test. If the solubility of the test substance is less than 100 μg a. i./bee, the maximum solubility is adopted as the upper limit concentration. The test results were examined at 24 and 48 h, respectively, and the number of deaths and poisoning symptoms were recorded. The standard of death is touching the bee's body, and when it can't crawl, it is judged as death.
(§2) Statistical analysis. Using the statistical software SPSS16.0, the LD50 value and 95% confidence limit of the half lethal dose of the sample to bees were obtained by regression statistical analysis with the probit analysis method.

Plutella xylostella = assay: Insecticidal activity against Plutella xylostella (soaking method)
[2] = tested on: honeybees (Apis mellifera); assay: Bee contact toxicity; conditions: for LD50 / Toxicity level / Mortality: Contact toxicity; for Mortality: 1 μL of 10 × 10^4 mg A.I./L per bee; for LD50 contact toxicity: adult bees, time not stated
Experimental: as §1
Contact toxicity. 10 × 10^4 mg A.I./L of mother liquor was used as the test liquid, and 1 μL of the solution containing the tested drug was dripped onto the back of the front chest of bees by a micro-dropper. Then, bees were put into a beekeeping box and cultured in dark conditions at a temperature of 30 ± 1°C and relative humidity of 50%, with a 50% sucrose solution as food for 48 h. Taking the solvent drip bees without the drug to be tested as the blank control, the treatment group and the control group were set up with three replicates, and 10 bees were used in each replicate.
as §2

[3] = 400 μg/mL, 3rd instar nymphae, 1 day after treatment
[4] = 400 μg/mL, 3rd instar larvae, counted 4 days later
[5] = 400 μg/mL, 2nd instar larvae, counted 2 days later
[6] = Plutella xylostella, 48 h, 400 μg/mL, 2nd instar larvae, counted 2 days later, read-out: Mortality rate (%) P. xylostella
[7] = Plutella xylostella, 48 h, read-out: Mortality rate (%) P. xylostella

COCC(=O)/N=c1\ccccn1Cc1cnn(-c2ccc(Cl)cc2)c1C(F)(F)F [Compound B4, (E)-N-(1-((1-(4-chlorophenyl)-5-(trifluoromethyl)-1H-pyrazol-4-yl)methyl)pyridin-2(1H)-ylidene)-2-methoxyacetamide]
mortality at 400 µg/mL (Nilaparvata lugens; [3]): 0%
mortality at 400 µg/mL (Chilo suppressalis; [4]): 0%
mortality at 400 µg/mL (Helicoverpa armigera; [5]): 0%
mortality at 400 µg/mL (Aphis craccivora; 400 μg/mL, counted 24 h later): 0%
LD50 ([1]; 24 h): >11.0 μg a.i./bee
Mortality ([1]; 24 h): 15
Toxicity level ([1]; 24 h): Low toxicity
LD50 ([1]; 48 h): >11.0 μg a.i./bee
Mortality ([1]; 48 h): 17
Toxicity level ([1]; 48 h): Low toxicity
LD50 oral toxicity [1]: > 11.0 μg a.i./bee
mortality at 100 µg/mL (Plutella xylostella; Plutella xylostella, 48 h, 100 μg/mL, 2nd instar larvae, counted 2 days later, read-out: Mortality rate (%) P. xylostella): 96.7%
mortality at 400 µg/mL (Plutella xylostella; [6]): 100%
LD50 ([2]; 24 h): >11.0 μg a.i./bee
Toxicity level ([2]; 24 h): Low toxicity
Mortality ([2]; 24 h): 3
LD50 ([2]; 48 h): >11.0 μg a.i./bee
Toxicity level ([2]; 48 h): Low toxicity
Mortality ([2]; 48 h): 3
LD50 contact toxicity [2]: > 11.0 μg a.i./bee

Cn1cc(C(=O)/N=c2\ccccn2Cc2cnn(-c3ccc(F)cc3)c2C(F)F)c(C(F)F)n1 [Compound D7, (E)-3-(difluoromethyl)-N-(1-((5-(difluoromethyl)-1-(4-fluorophenyl)-1H-pyrazol-4-yl)methyl)pyridin-2(1H)-ylidene)-1-methyl-1H-pyrazole-4-carboxamide]
mortality at 100 µg/mL (Nilaparvata lugens; 100 μg/mL, 3rd instar nymphae, 1 day after treatment): 0%
mortality at 400 µg/mL (Nilaparvata lugens; [3]): 100%
mortality at 400 µg/mL (Chilo suppressalis; [4]): 0%
mortality at 400 µg/mL (Helicoverpa armigera; [5]): 0%
mortality at 400 µg/mL (Aphis craccivora; 400 μg/mL, counted 24 h later): 0%
mortality at 400 µg/mL (Plutella xylostella; [6]): 73.3%

O=C(N=c1ccccn1Cc1ccc(Cl)nc1)C(F)(F)F [FLP, flupyrimin]
mortality at 100 µg/mL (Nilaparvata lugens): 100%
mortality at 400 µg/mL (Nilaparvata lugens): 100%
mortality at 400 µg/mL (Chilo suppressalis): 100%
Mortality rate (%) H. armigera (Helicoverpa armigera; [5]): inactive
mortality at 400 µg/mL (Helicoverpa armigera): 0%
mortality at 100 µg/mL (Aphis craccivora; 24 h): 100%
mortality at 400 µg/mL (Aphis craccivora; 24 h): 100%
LD50 oral toxicity [1]: > 11.0 μg a.i./bee
Mortality rate (%) P. xylostella (Plutella xylostella; 25 μg/mL, 2nd instar larvae, counted 2 days later): no insecticidal activity
mortality at 25 µg/mL (Plutella xylostella; [7]): 0%
mortality at 100 µg/mL (Plutella xylostella; [7]): 0%
mortality at 400 µg/mL (Plutella xylostella; [7]): 100%
LD50 ([2]; 24 h): >11.0 μg a.i./bee
Toxicity level ([2]; 24 h): Low toxicity
Mortality ([2]; 24 h): 12 and 9
Toxicity level ([2]; 48 h): Low toxicity
Mortality ([2]; 48 h): 13 and 20
LD50 contact toxicity [2]: > 11.0 μg a.i./bee

From publication PMC9574050, “Design, synthesis, and insecticidal activity of a novel series of flupyrimin analogs bearing 1-aryl-1H-pyrazol-4-yl subunits” (Frontiers in Chemistry, 2022)
